Measured values taken from PubChem BioAssay AID2060342 (Molecular Pharmacology Branch, DTP, NCI, 2025).

System: 171881-019-R-J1-PDC multicell spheroid viability
Assay: Anticancer human tumor 171881-019-R-J1-PDC patient-derived invasive breast carcinoma cell line growth inhibition [IpAb]
Details: for IC50: curve of first compound; for viability, T/C: stronger effect = lower value
Outline: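 Combinations with ipatasertib or abemaciclib were tested on tumour spheroids holding HUVEC (25%) and MSC (15%) alongside 60% malignant cells. Top concentration was at or near clinical Cmax (10 microM if undefined), descending in half-log steps.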

[1] = second compound 0.01 µM, first compound 0.00949 µM
[2] = second compound 0.01 µM, first compound 0.03 µM
[3] = second compound 0.01 µM, first compound 0.0949 µM
[4] = second compound 0.01 µM, first compound 0.3 µM
[5] = second compound 0.0316 µM, first compound 0.00949 µM
[6] = second compound 0.0316 µM, first compound 0.03 µM
[7] = second compound 0.0316 µM, first compound 0.0949 µM
[8] = second compound 0.0316 µM, first compound 0.3 µM
[9] = second compound 0.1 µM, first compound 0.00949 µM
[10] = second compound 0.1 µM, first compound 0.03 µM
[11] = second compound 0.1 µM, first compound 0.0949 µM
[12] = second compound 0.1 µM, first compound 0.3 µM
[13] = second compound 0.316 µM, first compound 0.00949 µM
[14] = second compound 0.316 µM, first compound 0.03 µM
[15] = second compound 0.316 µM, first compound 0.0949 µM
[16] = second compound 0.316 µM, first compound 0.3 µM
[17] = second compound 1 µM, first compound 0.00949 µM
[18] = second compound 1 µM, first compound 0.03 µM
[19] = second compound 1 µM, first compound 0.0949 µM
[20] = second compound 1 µM, first compound 0.3 µM
[21] = second compound 0.01 µM, first compound 0.0316 µM
[22] = second compound 0.01 µM, first compound 0.1 µM
[23] = second compound 0.01 µM, first compound 0.316 µM
[24] = second compound 0.01 µM, first compound 1 µM
[25] = second compound 0.0316 µM, first compound 0.0316 µM
[26] = second compound 0.0316 µM, first compound 0.1 µM
[27] = second compound 0.0316 µM, first compound 0.316 µM
[28] = second compound 0.0316 µM, first compound 1 µM
[29] = second compound 0.1 µM, first compound 0.0316 µM
[30] = second compound 0.1 µM, first compound 0.1 µM
[31] = second compound 0.1 µM, first compound 0.316 µM
[32] = second compound 0.1 µM, first compound 1 µM
[33] = second compound 0.316 µM, first compound 0.0316 µM
[34] = second compound 0.316 µM, first compound 0.1 µM
[35] = second compound 0.316 µM, first compound 0.316 µM
[36] = second compound 0.316 µM, first compound 1 µM
[37] = second compound 1 µM, first compound 0.0316 µM
[38] = second compound 1 µM, first compound 0.1 µM
[39] = second compound 1 µM, first compound 0.316 µM
[40] = second compound 1 µM, first compound 1 µM
[41] = second compound 0.01 µM, first compound 3.16 µM
[42] = second compound 0.01 µM, first compound 10 µM
[43] = second compound 0.0316 µM, first compound 3.16 µM
[44] = second compound 0.0316 µM, first compound 10 µM
[45] = second compound 0.1 µM, first compound 3.16 µM
[46] = second compound 0.1 µM, first compound 10 µM
[47] = second compound 0.316 µM, first compound 3.16 µM
[48] = second compound 0.316 µM, first compound 10 µM
[49] = second compound 1 µM, first compound 3.16 µM
[50] = second compound 1 µM, first compound 10 µM
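Further: spheroids exposed to the agents for seven days before readout.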

## CC(=O)c1c(C)c2cnc(Nc3ccc(N4CCNCC4)cn3)nc2n(C2CCCC2)c1=O + CCN1CCN(Cc2ccc(Nc3ncc(F)c(-c4cc(F)c5nc(C)n(C(C)C)c5c4)n3)nc2)CC1
Second compound 0.01 µM
  IC50: > 300 nM
Second compound 0.0316 µM
  IC50: > 300 nM
Second compound 0.1 µM
  IC50: > 300 nM
Second compound 0.316 µM
  IC50: > 300 nM
Second compound 1 µM
  IC50: > 300 nM
Second compound 0.01 µM, first compound 0.000949 µM
  viability, T/C: 98%
Second compound 0.01 µM, first compound 0.003 µM
  viability, T/C: 90.7%
[1]
  viability, T/C: 77%
[2]
  viability, T/C: 94.4%
[3]
  viability, T/C: 105%
[4]
  viability, T/C: 107%
Second compound 0.0316 µM, first compound 0.000949 µM
  viability, T/C: 107%
Second compound 0.0316 µM, first compound 0.003 µM
  viability, T/C: 96.6%
[5]
  viability, T/C: 103%
[6]
  viability, T/C: 110%
[7]
  viability, T/C: 107%
[8]
  viability, T/C: 109%
Second compound 0.1 µM, first compound 0.000949 µM
  viability, T/C: 119%
Second compound 0.1 µM, first compound 0.003 µM
  viability, T/C: 109%
[9]
  viability, T/C: 115%
[10]
  viability, T/C: 117%
[11]
  viability, T/C: 115%
[12]
  viability, T/C: 112%
Second compound 0.316 µM, first compound 0.000949 µM
  viability, T/C: 120%
Second compound 0.316 µM, first compound 0.003 µM
  viability, T/C: 136%
[13]
  viability, T/C: 127%
[14]
  viability, T/C: 122%
[15]
  viability, T/C: 123%
[16]
  viability, T/C: 122%
Second compound 1 µM, first compound 0.000949 µM
  viability, T/C: 144%
Second compound 1 µM, first compound 0.003 µM
  viability, T/C: 143%
[17]
  viability, T/C: 142%
[18]
  viability, T/C: 142%
[19]
  viability, T/C: 140%
[20]
  viability, T/C: 132%

## CC(C)(C)c1cnc(CSc2cnc(NC(=O)C3CCNCC3)s2)o1 + CCN1CCN(Cc2ccc(Nc3ncc(F)c(-c4cc(F)c5nc(C)n(C(C)C)c5c4)n3)nc2)CC1
Second compound 0.01 µM
  IC50: 174 nM
Second compound 0.0316 µM
  IC50: 182 nM
Second compound 0.1 µM
  IC50: 191 nM
Second compound 0.316 µM
  IC50: 196 nM
Second compound 1 µM
  IC50: 185 nM
[1]
  viability, T/C: 104%
[2]
  viability, T/C: 93.6%
[3]
  viability, T/C: 114%
[4]
  viability, T/C: 5.39%
Second compound 0.01 µM, first compound 0.949 µM
  viability, T/C: 0.26%
Second compound 0.01 µM, first compound 3 µM
  viability, T/C: 0.29%
[5]
  viability, T/C: 110%
[6]
  viability, T/C: 99.8%
[7]
  viability, T/C: 121%
[8]
  viability, T/C: 3.9%
Second compound 0.0316 µM, first compound 0.949 µM
  viability, T/C: 0.25%
Second compound 0.0316 µM, first compound 3 µM
  viability, T/C: 0.36%
[9]
  viability, T/C: 116%
[10]
  viability, T/C: 125%
[11]
  viability, T/C: 138%
[12]
  viability, T/C: 0.81%
Second compound 0.1 µM, first compound 0.949 µM
  viability, T/C: 0.47%
Second compound 0.1 µM, first compound 3 µM
  viability, T/C: 0.46%
[13]
  viability, T/C: 132%
[14]
  viability, T/C: 126%
[15]
  viability, T/C: 141%
[16]
  viability, T/C: 1.4%
Second compound 0.316 µM, first compound 0.949 µM
  viability, T/C: 0.27%
Second compound 0.316 µM, first compound 3 µM
  viability, T/C: 0.57%
[17]
  viability, T/C: 148%
[18]
  viability, T/C: 143%
[19]
  viability, T/C: 118%
[20]
  viability, T/C: 1.51%
Second compound 1 µM, first compound 0.949 µM
  viability, T/C: 0.68%
Second compound 1 µM, first compound 3 µM
  viability, T/C: 1.06%

## COc1c(OCCCN2CCOCC2)ccc2c3n(c(=NC(=O)c4cnc(N)nc4)nc12)CCN3 + CCN1CCN(Cc2ccc(Nc3ncc(F)c(-c4cc(F)c5nc(C)n(C(C)C)c5c4)n3)nc2)CC1
Second compound 0.01 µM
  IC50: 19.5 nM
Second compound 0.0316 µM
  IC50: 21.1 nM
Second compound 0.1 µM
  IC50: 20.3 nM
Second compound 0.316 µM
  IC50: 23.5 nM
Second compound 1 µM
  IC50: 31.5 nM
Second compound 0.01 µM, first compound 0.00316 µM
  viability, T/C: 115%
Second compound 0.01 µM, first compound 0.01 µM
  viability, T/C: 76.6%
[21]
  viability, T/C: 31.9%
[22]
  viability, T/C: 5.33%
[23]
  viability, T/C: 1%
[24]
  viability, T/C: 1.29%
Second compound 0.0316 µM, first compound 0.00316 µM
  viability, T/C: 113%
Second compound 0.0316 µM, first compound 0.01 µM
  viability, T/C: 76.2%
[25]
  viability, T/C: 38.7%
[26]
  viability, T/C: 4.99%
[27]
  viability, T/C: 1%
[28]
  viability, T/C: 1.5%
Second compound 0.1 µM, first compound 0.00316 µM
  viability, T/C: 115%
Second compound 0.1 µM, first compound 0.01 µM
  viability, T/C: 80.2%
[29]
  viability, T/C: 31.9%
[30]
  viability, T/C: 5.31%
[31]
  viability, T/C: 0.99%
[32]
  viability, T/C: 1.13%
Second compound 0.316 µM, first compound 0.00316 µM
  viability, T/C: 110%
Second compound 0.316 µM, first compound 0.01 µM
  viability, T/C: 76.1%
[33]
  viability, T/C: 45.3%
[34]
  viability, T/C: 7.2%
[35]
  viability, T/C: 1.95%
[36]
  viability, T/C: 1.08%
Second compound 1 µM, first compound 0.00316 µM
  viability, T/C: 121%
Second compound 1 µM, first compound 0.01 µM
  viability, T/C: 82.6%
[37]
  viability, T/C: 56.6%
[38]
  viability, T/C: 17.2%
[39]
  viability, T/C: 4.08%
[40]
  viability, T/C: 2%

## Cc1nc(NC(=O)N2CCCC2C(N)=O)sc1-c1ccnc(C(C)(C)C(F)(F)F)c1 (stereo not given) + CCN1CCN(Cc2ccc(Nc3ncc(F)c(-c4cc(F)c5nc(C)n(C(C)C)c5c4)n3)nc2)CC1
Second compound 0.01 µM
  IC50: 783 nM
Second compound 0.0316 µM
  IC50: 733 nM
Second compound 0.1 µM
  IC50: 823 nM
Second compound 0.316 µM
  IC50: 977 nM
Second compound 1 µM
  IC50: 1560 nM
[21]
  viability, T/C: 109%
[22]
  viability, T/C: 112%
[23]
  viability, T/C: 72%
[24]
  viability, T/C: 44.7%
[41]
  viability, T/C: 15.7%
[42]
  viability, T/C: 1.42%
[25]
  viability, T/C: 118%
[26]
  viability, T/C: 108%
[27]
  viability, T/C: 75.7%
[28]
  viability, T/C: 40.9%
[43]
  viability, T/C: 13.5%
[44]
  viability, T/C: 2.7%
[29]
  viability, T/C: 117%
[30]
  viability, T/C: 112%
[31]
  viability, T/C: 75.9%
[32]
  viability, T/C: 44.9%
[45]
  viability, T/C: 18.3%
[46]
  viability, T/C: 2.71%
[33]
  viability, T/C: 130%
[34]
  viability, T/C: 112%
[35]
  viability, T/C: 85.7%
[36]
  viability, T/C: 47.2%
[47]
  viability, T/C: 23%
[48]
  viability, T/C: 4.63%
[37]
  viability, T/C: 137%
[38]
  viability, T/C: 117%
[39]
  viability, T/C: 89.8%
[40]
  viability, T/C: 64.1%
[49]
  viability, T/C: 29.7%
[50]
  viability, T/C: 8.19%

## Cn1nccc1Nc1nccc(-c2ccn(C(CO)c3ccc(Cl)c(F)c3)c(=O)c2)n1 (stereo not given) + CCN1CCN(Cc2ccc(Nc3ncc(F)c(-c4cc(F)c5nc(C)n(C(C)C)c5c4)n3)nc2)CC1
Second compound 0.01 µM
  IC50: 772 nM
Second compound 0.0316 µM
  IC50: 810 nM
Second compound 0.1 µM
  IC50: 929 nM
Second compound 0.316 µM
  IC50: 1140 nM
Second compound 1 µM
  IC50: 2970 nM
[21]
  viability, T/C: 117%
[22]
  viability, T/C: 112%
[23]
  viability, T/C: 79.5%
[24]
  viability, T/C: 41.6%
[41]
  viability, T/C: 24.5%
[42]
  viability, T/C: 18.5%
[25]
  viability, T/C: 132%
[26]
  viability, T/C: 122%
[27]
  viability, T/C: 80.6%
[28]
  viability, T/C: 43.2%
[43]
  viability, T/C: 29.2%
[44]
  viability, T/C: 19.7%
[29]
  viability, T/C: 138%
[30]
  viability, T/C: 113%
[31]
  viability, T/C: 78.5%
[32]
  viability, T/C: 47.4%
[45]
  viability, T/C: 31.2%
[46]
  viability, T/C: 20.9%
[33]
  viability, T/C: 144%
[34]
  viability, T/C: 122%
[35]
  viability, T/C: 79.3%
[36]
  viability, T/C: 52.2%
[47]
  viability, T/C: 38.8%
[48]
  viability, T/C: 26.5%
[37]
  viability, T/C: 161%
[38]
  viability, T/C: 129%
[39]
  viability, T/C: 87.5%
[40]
  viability, T/C: 61.5%
[49]
  viability, T/C: 46.5%
[50]
  viability, T/C: 32.7%
